5 molecules from ChEMBL document CHEMBL6083295, “Natural Products Driven Medicinal Chemistry” (J Med Chem, 2024) can be followed below.

pIC50: −log10 of the molar value. Converted amounts (≈) assume the structure as drawn.

The subject of one test is HCT-116. Briefly: Antiproliferative activity against human HCT-116 cells.
Another test deals with B16. The test can be described thus: Cytotoxicity against mouse B16 cells. The format is functional, cell-based.
Test [1] concerns Staphylococcus aureus. The test can be described thus: Potentiation of vancomycin-induced antibiofilm activity against Staphylococcus aureus assessed as disruption of preformed biofilm by measuring fold increase in vancomycin activity. The class given is functional.
Test [2] deals with Staphylococcus aureus. Briefly: Potentiation of gentamicin-induced antibiofilm activity against Staphylococcus aureus assessed as disruption of preformed biofilm by measuring fold increase in gentamicin activity. The format is functional.
Test [3] deals with MDA-MB-231. Briefly: Antitumor activity against human MDA-MB-231 cells xenografted in triple-negative breast cancer xenograft model assessed as tumor growth inhibition at 30 mg/kg relative to control. The format is functional. The settings on record: read-out: TGI. On the technique in general: Xenograft models place foreign cells or tissue in a host animal.
The subject of test [4] is MDA-MB-231. The test can be described thus: Antitumor activity against human MDA-MB-231 cells xenografted in triple-negative breast cancer xenograft model assessed as tumor growth inhibition at 15 mg/kg relative to control. The format is functional. The settings on record: read-out: TGI.
A further test has as its system Staphylococcus sp. Briefly: Antibacterial activity against Staphylococcus species. The class given is functional.
For the next test, the system named is Acinetobacter. The test can be described thus: Antibacterial activity against Acinetobacter. The class given is functional.

A word on the pIC50: it is −log10 of the IC50, conventionally taken in molar units. Read a high pIC50 as a small IC50. `COc1ccc2cc(NC(=O)C3=NO[C@H]4[C@H](O)C=C[C@@H](Cl)[C@@]4(O)C3)c(=O)oc2c1OC` [TRICHODERMAMIDE B] gave a pIC50 in the test with HCT-116 of 6.92.
`COC[C@@H](OC)C(=O)O[C@H](CC[C@H](C)[C@H](C[C@@H]1OC(=O)C[C@@H](O)C/C=C/C(=O)[C@H](C)[C@H](OC)c2coc(n2)-c2coc(n2)-c2coc(n2)/C=C\C[C@H](OC)[C@H]1C)OC)[C@H](C)[C@H](OC(C)=O)[C@H](C)/C=C/N(C)C=O` had a pIC50 in the test with B16 of 9.30.
Consider `CC(=O)[C@H](C)C[C@@H](C)C[C@H](C)C(=O)C1=C(O)/C(=C/c2ccccc2)NC1=O`, for which the “fold change (FC)” value in the test with Staphylococcus aureus [1] worked out at 31; with Staphylococcus aureus [2], 115.
Turning to `CC(C)C[C@@H](CO)N1CCc2c(oc3c2C(=O)C(=O)c2ccccc2-3)C1`, the inhibition in vivo at 30 mg/kg in the test on MDA-MB-231 [3] was 60.4%. Moreover, the inhibition in vivo at 15 mg/kg in the test on MDA-MB-231 [4] was 42.2%.
Broadly, the MIC is the smallest concentration in the dilution series that meets the test's criterion for growth inhibition. Read a high MIC as weaker potency. For the molecule `C#CC[C@H](NC(=O)c1ccc(NC(=O)c2ccc(C#N)cc2)cc1)C(=O)Nc1ccc(C(=O)Nc2ccc(C(=O)Nc3ccc(C(=O)O)cc3)c(O)c2OC(C)C)cc1`, the minimal inhibitory concentration (MIC) with Staphylococcus sp. and in the test on Acinetobacter was 0.06 µg/mL (≈ 0.0757 µM) each time.
